How the values were obtained:
[1] = Inhibition of HCV 1a NS5B polymerase; parameters: species or system Hepatitis C virus subtype 1a
[2] = system: Hepatitis C virus; assay: Antiviral activity against HCV 1a replicon in presence of fetal calf serum; format: functional, organism-based, Hepacivirus hominis; details: subtype 1a
[3] = system: Hepatitis C virus; assay: Inhibition of HCV 1b NS5B polymerase; parameters: species or system Hepatitis C virus subtype 1b

Structure (SMILES) | IC50 [1] [nM] | EC50 [2] [nM] | IC50 [3] [nM]
CCCC1(C)C(=O)C(C2=NS(=O)(=O)c3cc(NS(C)(=O)=O)ccc3N2)=C(O)c2ccccc21 (stereo not drawn) | 20 | 184 | –
C=CCC1(C)C(=O)C(C2=NS(=O)(=O)c3cc(NS(C)(=O)=O)ccc3N2)=C(O)c2ccccc21 (stereo not drawn) | 18 | 690 | 225
CC(C)=CCC1(C)C(=O)C(C2=NS(=O)(=O)c3cc(NS(C)(=O)=O)ccc3N2)=C(O)c2ccccc21 (stereo not drawn) | 38 | 237 | 147
CC1(C/C=C/c2ccccc2)C(=O)C(C2=NS(=O)(=O)c3cc(NS(C)(=O)=O)ccc3N2)=C(O)c2ccccc21 (stereo not drawn) | 460 | – | 1850
CC1(CC=C2CCC2)C(=O)C(C2=NS(=O)(=O)c3cc(NS(C)(=O)=O)ccc3N2)=C(O)c2ccccc21 (stereo not drawn) | 87 | 1190 | 425
CC1(CC=C2CCCC2)C(=O)C(C2=NS(=O)(=O)c3cc(NS(C)(=O)=O)ccc3N2)=C(O)c2ccccc21 (stereo not drawn) | 93 | 1490 | 550
CC1(CC=C2CCCCC2)C(=O)C(C2=NS(=O)(=O)c3cc(NS(C)(=O)=O)ccc3N2)=C(O)c2ccccc21 (stereo not drawn) | 195 | – | 910
CCOC(=O)/C=C/CC1(C)C(=O)C(C2=NS(=O)(=O)c3cc(NS(C)(=O)=O)ccc3N2)=C(O)c2ccccc21 (stereo not drawn) | 1080 | > 10000 | 5870
CC1(C)C(=O)C(C2=NS(=O)(=O)c3cc(NS(C)(=O)=O)ccc3N2)=C(O)c2ccccc21 | 933 | – | –
CC(C)CCC1(C)C(=O)C(C2=NS(=O)(=O)c3cc(NS(C)(=O)=O)ccc3N2)=C(O)c2ccccc21 (stereo not drawn) | 4 | 17 | 7
CC1(CCCc2ccccc2)C(=O)C(C2=NS(=O)(=O)c3cc(NS(C)(=O)=O)ccc3N2)=C(O)c2ccccc21 (stereo not drawn) | 115 | – | 280
CC1(CCC2CCC2)C(=O)C(C2=NS(=O)(=O)c3cc(NS(C)(=O)=O)ccc3N2)=C(O)c2ccccc21 (stereo not drawn) | 16 | 190 | 36
CC1(CCC2CCCC2)C(=O)C(C2=NS(=O)(=O)c3cc(NS(C)(=O)=O)ccc3N2)=C(O)c2ccccc21 (stereo not drawn) | 32 | 320 | 70
CC(C)(O)CCC1(C)C(=O)C(C2=NS(=O)(=O)c3cc(NS(C)(=O)=O)ccc3N2)=C(O)c2ccccc21 (stereo not drawn) | 43 | 8000 | 193
CC(C)(Cl)CCC1(C)C(=O)C(C2=NS(=O)(=O)c3cc(NS(C)(=O)=O)ccc3N2)=C(O)c2ccccc21 (stereo not drawn) | 39 | 2170 | 70
CC1(CC2CC2)C(=O)C(C2=NS(=O)(=O)c3cc(NS(C)(=O)=O)ccc3N2)=C(O)c2ccccc21 (stereo not drawn) | 21 | 160 | 40
CC1(CCCO)C(=O)C(C2=NS(=O)(=O)c3cc(NS(C)(=O)=O)ccc3N2)=C(O)c2ccccc21 (stereo not drawn) | – | 860 | –
CC(C)=CC[C@@]1(C)C(=O)C(C2=NS(=O)(=O)c3cc(NS(C)(=O)=O)ccc3N2)=C(O)c2ccccc21 | 19 | 134 | 32
CC(C)=CC[C@]1(C)C(=O)C(C2=NS(=O)(=O)c3cc(NS(C)(=O)=O)ccc3N2)=C(O)c2ccccc21 | 702 | – | –
CC1(CCC2CCCCC2)C(=O)C(C2=NS(=O)(=O)c3cc(NS(C)(=O)=O)ccc3N2)=C(O)c2ccccc21 (stereo not drawn) | 57 | 2710 | 194
CC1(CC(O)CO)C(=O)C(C2=NS(=O)(=O)c3cc(NS(C)(=O)=O)ccc3N2)=C(O)c2ccccc21 (stereo not drawn) | 450 | – | –
CC(C)CCC1(CCC(C)C)C(=O)C(C2=NS(=O)(=O)c3cc(NS(C)(=O)=O)ccc3N2)=C(O)c2ccccc21 | 68 | 423 | –

— ChEMBL document CHEMBL1139154, “Inhibitors of HCV NS5B polymerase: synthesis and structure-activity relationships of unsymmetrical 1-hydroxy-4,4-dialkyl-3-oxo-3,4-dihydronaphthalene benzothiadiazine derivatives” (Bioorg Med Chem Lett, 2007)
